Where two headings read alike, the source gives them in different places. One block for each compound: values may come before it.
What was measured:
Format in all cases: cell-based
MD-MB-231 cells = test: MTT proliferation assay, MD-MB-231 breast cancer cells; settings: for effect on proliferation of MD-MB-231 cells: increasing concentrations, 24 and 48 hours, 10% charcoal-stripped phenol-free serum, dose dependent
Description: (§1) First, the role of THs on breast cancer cell proliferation was evaluated using escalating doses of tri-iodothyronine (T3) and thyroxine (T4). […] In particular, the compound of Formula (I) or compound of Formula (Ia) is dronedarone. Dronedarone was selected as it is an FDA approved anti-arrhythmic drug.
(§2) The effect of increasing concentrations of T3 and T4 on the proliferation of 3 breast cancer cell lines (MCF 7, MD-MB-231, BT-474) in 10% charcoal-stripped phenol-free serum was evaluated at 24 and 48 hours following standard MTT-assay protocols. Increasing doses of PTU and dronedarone were added to cells with 200 μM T3 or T4 to measure proliferation of MCF-7 and MD-MB-231 cells using MTT assays.

MCF7 cells = test: MTT proliferation assay, MCF7 breast cancer cells; settings: for IC50: Homo sapiens; for IC50 / effect on proliferation: MCF7 cells; for effect on proliferation of MCF7 cells: increasing concentrations, 24 and 48 hours, 10% charcoal-stripped phenol-free serum, dose dependent
Description: as §1, §2

BT-474 cells = test: MTT proliferation assay, BT-474 breast cancer cells; settings: increasing concentrations, 24 and 48 hours, 10% charcoal-stripped phenol-free serum, dose dependent
Description: as §1, §2

IC50 (MD-MB-231 cells; Homo sapiens, PTU alone, without T3/T4 (FIG. 11: MDA-MB-231 cells, 24 hours), read-out: concentration reducing cell proliferation by 50%): > 12 µM
IC50 (MD-MB-231 cells; MD-MB-231 cells, in the presence of T3 (FIG. 10), read-out: IC50 (proliferation)): 12 µM
IC50 (MD-MB-231 cells; MD-MB-231 cells, in the presence of T4 (FIG. 10), read-out: concentration reducing proliferation by 50%): ~5 µM
IC50 (MCF7 cells; in the presence of T3 (FIG. 10), read-out: IC50 (proliferation)): 12 µM
IC50 (MCF7 cells; in the presence of T4 (FIG. 10), read-out: concentration reducing proliferation by 50%): ~5 µM
Compound: CCCc1cc(=O)[nH]c(=S)[nH]1 [PTU, propylthiouracil]

Compound: N[C@@H](Cc1cc(I)c(Oc2ccc(O)c(I)c2)c(I)c1)C(=O)O [T3, tri-iodothyronine]
effect on proliferation of BT-474 cells (BT-474 cells): statistically significant increase
effect on proliferation of MD-MB-231 cells (MD-MB-231 cells): statistically significant increase
effect on proliferation of MCF7 cells (MCF7 cells): statistically significant increase

Compound: CCCCc1oc2ccc(NS(C)(=O)=O)cc2c1C(=O)c1ccc(OCCCN(CCCC)CCCC)cc1 [dronedarone]
effect on proliferation (MD-MB-231 cells; MD-MB-231 cells, 10 μM dronedarone in combination with T3): significantly reduced proliferation
effect on proliferation (MD-MB-231 cells; MD-MB-231 cells, 10 μM dronedarone in combination with T4): significantly reduced proliferation
effect on cell proliferation (MD-MB-231 cells; dronedarone alone, without T3/T4 (FIG. 13: MDA-MB-231 cells, 24 hours)): not affected
effect on proliferation (MCF7 cells; 10 μM dronedarone in combination with T3): significantly reduced proliferation
effect on proliferation (MCF7 cells; 10 μM dronedarone in combination with T4): significantly reduced proliferation

Compound: N[C@@H](Cc1cc(I)c(Oc2cc(I)c(O)c(I)c2)c(I)c1)C(=O)O [T4, thyroxine]
effect on proliferation of BT-474 cells (BT-474 cells): statistically significant increase
effect on proliferation of MD-MB-231 cells (MD-MB-231 cells): statistically significant increase
effect on proliferation of MCF7 cells (MCF7 cells): statistically significant increase

— patent publication US10576056B2, “Compounds for treating cancer and methods of use thereof” (MCMASTER UNIVERSITY, priority 2015, dated 2020)
